Data: patent publication US6103888A, “Mammalian cationic proteins having lipopolysaccharide binding and anti-coagulant activity” (priority 1999, dated 2000)
Where two headings read alike, the source gives them in different places.

Legend:
RAW 264.7 cells = assay: LPS- or IFNγ-induced reactive nitrogen intermediate (RNI) production, Griess nitrite assay; format: cell-based, murine
Experimental: From the sequence of the CAP18 cDNA, it was apparent that the putative N-terminal peptide of CAP18 was in fact an internal fragment of the CAP18 protein. We therefore tried to reconfirm the original protein sequence. Neutrophil-derived heparin bound cationic proteins were prepared as described above and applied to a C18 reverse phase HPLC (FIG. 1). We sequenced the major peaks. Peaks at fractions 14.5 and 15.2 correspond to defensins MCP1 and MCP2 (Territo et al. (1989) J. Clin. Invest. 84:2017-2019), respectively. Fraction 25.8 is macrophage related protein 14 (MRP14) (Odink et al. (1987) Nature 330:80-82). The fraction at 20.3 minutes corresponds to a fragment of CAP18 of approximately 4-5 kD. […] The murine macrophage cell line RAW 264.7 (obtained from ATCC) and thioglycollate-elicited murine peritoneal exudate cells are used to produce RNI. Cells are cultured at 1×10^6 /ml. in RPMI-1640 +2.5% FCS in 24 well plates in the presence or absence of different concentrations of LPS or murine rlFNγ. After 24 hr. incubation at 37° C., the cell free supernatant is collected and tested for the presence of RNI. Accumulation of nitrite in the medium is measured by a calorimetric assay based on the Griess reaction (Green et al. (1982) Anal. Biochem. 126:11) using sodium nitrite as standards. Sample (50 μl) is mixed with 50 μl of Griess reagent (1% sulfanilamide, 0.1% naphthalene diamine dihydrochloride, 2.5% H3 PO4) and after 10 min. at room temperature absorbance is read at 570 nm.

[1] = system: Salmonella minnesota ReLPS sensitized sheep erythrocytes; assay: LPS hemagglutination assay (MAC); format: binding
Experimental: (§1) For hemagglutination assays, erythrocytes were sensitized with LPS as follows. One ml of 1% erythrocyte suspension (human 0 type, C3H/HeN mouse or sheep) was mixed with 0.2 ml of LPS solution and incubated at 37° C. for 30 min, followed by washing with phosphate buffered saline (PBS), and then the concentration of suspension was adjusted to 1.0%. In the case of S-LPS, the solution was heated at 100° C. for 1 hour before sensitization of erythrocytes. […] Activity of CAP was expressed as a minimum agglutinating concentration (MAC) of CAP. According to the method of Kirikae et al. (1986) Microbiol. Immunol. 30:269-274, 50 μl of 2-fold serial dilution of Re-LPS was added to 50 μl of 1.0% rabbit erythrocyte suspension, and incubated at 37° C. for 3 hour. Minimum agglutinating concentration of Re-LPS was expressed as 1 HA unit.

E. coli 0111:B4 LPS = assay: Inhibition of RNIP-mediated hemagglutination by LPS preparation; format: binding; conditions: Peptide #36-1 16 μg/ml, RNIP (#197) 25 μg/ml preincubated with LPS 37° 30 minutes
Experimental: as §1
(§2) Another series of experiments was performed to determine if the #36-1 and #197 (RNIP) peptides were capable of binding to LPS from various species of Gram-negative bacteria. For these experiments, sheep red blood cells were sensitized with Salmonella minnesota Re-LPS. Peptides #36-1 and #197 (RNIP) were preincubated with various preparations of LPS. Both peptides bind to a diverse group of lipopolysaccharides.
(§3) +Peptide #361 (16 μg/ml) and RNIP (#197) (25 μg/ml) were
(§4) preincubated with each LPS preparation at 37° for 30 minutes, and
(§5) each reaction mixture was added to sheep erythrocytes sensitized with […]

E. coli 0127:B8 LPS = assay: as above; format: binding; conditions: Peptide #36-1 16 μg/ml, RNIP (#197) 25 μg/ml preincubated with LPS 37° 30 minutes
Experimental: as §1, §2, §3, §4, §5

E. coli 055:B5 LPS = assay: as above; format: binding; conditions: Peptide #36-1 16 μg/ml, RNIP (#197) 25 μg/ml preincubated with LPS 37° 30 minutes
Experimental: as §1, §2, §3, §4, §5

E. coli J5 LPS = assay: as above; format: binding; conditions: Peptide #36-1 16 μg/ml, RNIP (#197) 25 μg/ml preincubated with LPS 37° 30 minutes
Experimental: as §1, §2, §3, §4, §5

[2] = system: Klebsiella pneumoniae LPS; assay: as above; format: binding; conditions: Peptide #36-1 16 μg/ml, RNIP (#197) 25 μg/ml preincubated with LPS 37° 30 minutes
Experimental: as §1, §2, §3, §4, §5

[3] = system: Pseudomonas aeruginosa F-D Type I LPS; assay: as above; format: binding; conditions: Peptide #36-1 16 μg/ml, RNIP (#197) 25 μg/ml preincubated with LPS 37° 30 minutes
Experimental: as §1, §2, §3, §4, §5

[4] = system: Salmonella minnesota R595 LPS; assay: as above; format: binding; conditions: Peptide #36-1 16 μg/ml, RNIP (#197) 25 μg/ml preincubated with LPS 37° 30 minutes
Experimental: as §1, §2, §3, §4, §5

[5] = system: thioglycollate-stimulated murine peritoneal macrophages; assay: LPS-induced tissue factor generation by macrophages (clotting assay); format: cell-based; conditions: peptides 1 μg/ml incubated with S. minnesota smooth LPS 5 minutes; 6 hr
Experimental: Tissue factor assay. Salmonella minnesota smooth LPS was incubated with each peptide (1 μg/ml) for 5 min., then the mixture was added to peritoneal murine macrophages obtained 4 days after thioglycollate stimulation. Cells were cultured for 6 hours prior to assay of tissue factor by clotting assay.
Various concentrations of Salmonella minnesota smooth LPS were incubated with each peptide (197 (RNIP), 36-1, 32-1, and 50-2) at 37° C. for 5 minutes prior to mixing with thioglycollate-stimulated murine peritoneal macrophages. Production of tissue factor after 6 hr. was measured by clotting assay. […] In the absence of LPS no tissue factor is synthesized by these cells.

Human plasma [6] = assay: Prothrombin time (PT); format: biochemical
Experimental: Prothrombin time (PT). Human plasma (100 μl) was incubated with 100 μl of each peptide at 37° C. for 3 min., then 100 μl of tissue factor (250 μg/ml) CaCl2 was added and clotting time was measured.

Human plasma [7] = assay: Partial thromboplastin time (PTT); format: biochemical; conditions: dose dependent
Experimental: Partial thromboplastin time (PTT). Human plasma (100 μl) was incubated with each peptide (100 μl) at 37° C. for 3 min., then 100 μl of CaCl2 containing phospholipid was added and clotting time was measured.

factor Xa = biological target: T1, factor Xa (Homo sapiens, UniProt P00742); assay: Direct Xa inhibition using Xa substrate S2222; format: biochemical; conditions: concentrations over 10 μg/ml
T1 construct: purchased Sigma Chemical Co., St. Louis, Mo
T1 sequence (P00742 235-488 limits assumed): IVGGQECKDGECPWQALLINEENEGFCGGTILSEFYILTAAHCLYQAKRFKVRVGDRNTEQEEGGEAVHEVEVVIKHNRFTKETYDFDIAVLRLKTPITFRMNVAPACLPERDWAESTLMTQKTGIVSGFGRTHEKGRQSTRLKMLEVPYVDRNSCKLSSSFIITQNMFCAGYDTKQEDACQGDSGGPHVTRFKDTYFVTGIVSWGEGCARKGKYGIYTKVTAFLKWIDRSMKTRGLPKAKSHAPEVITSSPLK
T1 sequence (P00742 41-179 limits assumed): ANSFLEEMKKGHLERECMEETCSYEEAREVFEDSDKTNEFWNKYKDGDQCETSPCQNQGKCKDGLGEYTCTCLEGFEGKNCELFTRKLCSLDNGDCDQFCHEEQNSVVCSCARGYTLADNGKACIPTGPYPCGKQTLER
From the text: Clotting method: Human plasma (Ortho plasma control, Ortho Diagnostic Co.). ATPP reagent(Organo-technika, Tokyo, Japan). Standard tissue factor, rabbit brain thromboplastin (Simplastin, ONO Pharmaceutical, Tokyo, Japan). Purified human factor VII, factor X, factor Xa (Sigma Chemical Co., St. Louis, Mo.). Russell Viper venom (RVV) and Echis Carinatus venom (ECV, Sigma Co.).
Synthetic chromogenic substrate method: Substrate for factor Xa, S2222 (Kabi, Bz-Ile-Glu-Arg-pNA) was used. Substrate for factor II (prothrombin), Boc-Val-Pro-Arg-pNA (Sigma Chemical Co.) was used.

factor X = biological target: T2, factor X (Homo sapiens, UniProt P00742); assay: Factor X activation by tissue factor and factor VII, synthetic substrate S-2222; format: biochemical
T2 construct: purchased Sigma Chemical Co., St. Louis, Mo
T2 sequence (P00742 183-488): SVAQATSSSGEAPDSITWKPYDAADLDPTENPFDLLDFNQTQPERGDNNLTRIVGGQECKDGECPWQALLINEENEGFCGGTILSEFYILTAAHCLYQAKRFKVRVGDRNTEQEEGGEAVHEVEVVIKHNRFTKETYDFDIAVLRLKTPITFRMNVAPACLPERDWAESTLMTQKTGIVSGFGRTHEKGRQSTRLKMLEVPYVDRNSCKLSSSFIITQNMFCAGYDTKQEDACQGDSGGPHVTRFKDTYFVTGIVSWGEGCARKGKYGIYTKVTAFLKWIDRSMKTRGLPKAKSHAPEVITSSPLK
T2 sequence (P00742 41-179): as the sequence (P00742 41-179 limits assumed) above
Experimental: Factor Xa activity using synthetic substrate. A reaction mixture of factor VII (1 unit/ml, 200 μl), factor X (1 unit/ml, 200 μl), tissue factor (2.5 mg/ml, 50 μl), 25 mM-CaCl2 (50 μl) and 50 μl of several concentration of peptide was incubated at 37° C. for 10 min. To 200 Al of the reaction mixture, 60 μl of 4 mM S-2222, a synthetic substrate for factor Xa, and 340 μl of Tris-HCl buffer, pH 8.2, was added and further incubated for 15 min. The reaction was stopped by adding 60 μl of 50% acetic acid, and OD for p-nitroaniline was read at 405 nm.

prothrombin (factor II) = prothrombin (factor II) (Homo sapiens, UniProt P00734); assay: Prothrombin activation by Echis Carinatus venom (ECV); format: biochemical
Experimental: Prothrombin activation by Echis Carinatus venom (ECV). A reaction mixture of prothrombin (factor II) (0.1 unit/ml, 200 μl), ECV (1 unit/ml, 200 μl), various concentration of peptide (70 μl), 50 μl of 25 mM-CaCl2 and 180 μl of Tris buffer was incubated at 37° C. for 10 min. To 300 μl of the reaction mixture, 60 μl of 4 mM-thrombin substrate and 240 μl of buffer was added and further incubated for 15 min.

coagulation = assay: Anti-coagulant activity of human RNIP (preliminary studies); format: biochemical

Substance	concentrations at which peptides are active in the bioassay (RAW 264.7 cells; day-to-day variation in the bioassay)	inhibition of LPS-induced RNI production (in words) (RAW 264.7 cells; macrophages / RAW 264.7 cells)	Hemagglutination [MAC], minimum agglutinating concentration [1]	MIC, minimal inhibitory concentration of LPS (E. coli 0111:B4 LPS)	MIC, minimal inhibitory concentration of LPS (E. coli 0127:B8 LPS)	MIC, minimal inhibitory concentration of LPS (E. coli 055:B5 LPS)	MIC, minimal inhibitory concentration of LPS (E. coli J5 LPS)	MIC, minimal inhibitory concentration of LPS [2]	MIC, minimal inhibitory concentration of LPS [3]	MIC, minimal inhibitory concentration of LPS [4]	inhibition of LPS induced tissue factor (in words) [5]	inhibition of the prothrombin time (PT), in words (Human plasma [6])	inhibition of the partial thromboplastin time (PTT), in words (Human plasma [7])	direct Xa inhibition (in words) (factor Xa)	IC50, Tissue factor VII, X to Xa (factor X; synthetic substrate)	IC50 (factor X; text value for both peptides, read-out: IC50, factor X activated by tissue factor and purified factor VII)	inhibition of Echis carinatus venom activation of purified factor II to IIa (in words) (prothrombin (factor II))	anti-coagulant activity (in words) (coagulation)	anti-coagulant activity (in words) (coagulation; listed as Human RNIP)
36-1: synthetic rabbit RNIP fragment, amino acids 135-166 of SEQ ID NO:4 (GLRKRLRKFRNKIKEKLKKIGQKIQGLLPKLA) [Peptide 36-1]	10 to 50 nM	active	3.9 µg/mL	15.6 µg/mL	15.6 µg/mL	15.6 µg/mL	7.8 µg/mL	31.3 µg/mL	3.9 µg/mL	15.6 µg/mL	inhibition	inhibited	inhibited	No evidence of direct Xa inhibition	0.3 to 0.7 µg/mL	40 to 100 nM	inhibited	–	–
human RNIP: synthetic polypeptide comprising amino acids 134 to 170 of SEQ ID NO:2 (LLGDFFRKSKEKIGKEFKRIVQRIKDFLRNLVPRTES)	–	–	–	–	–	–	–	–	–	–	–	–	–	–	–	–	–	lacks significant anti-coagulant activity	free from anti-coagulant activity
